This passage reports IC50, MIC90 and Activity results from ChEMBL document CHEMBL6121037, “Screening, Discovery, and Optimization of the Natural Antitubercular Chlorflavonin from a Marine-Derived Fungal Library” (J Nat Prod, 2025).

Assay [1] has as its system A549. As to the kind of experiment: Cytotoxicity against human A549 cells by MTT assay. The assay is classed as functional, cell-based.
Assay [2] deals with Mycobacterium tuberculosis. In words: Antitubercular activity against Mycobacterium tuberculosis H37Ra assessed as reduction in microbial growth. The assay is classed as functional.
In another assay the test system is Mycobacterium marinum. As to the kind of experiment: Antibacterial activity against Mycobacterium marinum assessed as reduction in microbial growth at 100 ug/ml. The assay is classed as functional, organism-based. The conditions noted are these: dose 100.0 µg/ml.
The test system of another assay is Staphylococcus aureus. In words: Antibacterial activity against Staphylococcus aureus assessed as reduction in microbial growth at 25 ug/ml incubated for 24 hrs. The class given is functional, organism-based. The conditions noted are these: dose 25.0 µg/ml.
Assay [3] deals with A549. As to the kind of experiment: Cytotoxicity against human A549 cells at 20 uM by MTT assay. The class given is functional, cell-based. For orientation: Formazan colour is commonly taken as a measure of viable cells.

pIC50: −log10 of the molar value. Structures can show the parent of a compound that is named as a salt. The source made the active and inactive calls. The calls are words filed in the database; no cut-off is given here.

Turning to `COc1cccc2c1C(=O)c1c(O)c3c(c(O)c1C2=O)C[C@@](O)(C(=O)CO)C[C@@H]3O[C@H]1C[C@H](N)[C@H](O)[C@H](C)O1` [DOXORUBICIN HYDROCHLORIDE], in the assay with A549 [1], the pIC50 is 6.60.
Consider `COc1cc(/C=C/C(=O)Oc2c(Cl)cccc2-c2oc3c(OC)c(OC)cc(O)c3c(=O)c2OC)cc(OC)c1OC`, for which the MIC90 in assay [2] was 1.7 µM. The result with Mycobacterium marinum, with Staphylococcus aureus and in the assay with A549 [3] was inactive.
Turning to `COc1cc(O)c2c(=O)c(OC)c(-c3cccc(Cl)c3OC(=O)/C=C/c3ccc(C(F)(F)F)cc3)oc2c1OC`, in assay [2], the MIC90 amounted to 1.7 µM. For the same compound, the outcome in the assay on Mycobacterium marinum, in the assay with Staphylococcus aureus and with A549 [3] was inactive.

The term pIC50 denotes the negative decadic logarithm of the IC50, by convention in mol/L. Lower therefore signals a large IC50. One may read the MIC90 as an inhibitory concentration at the 90% level, which refers to growth in some studies and to a panel of isolates in others.
